Patent US12162850B2, “Formulations” (Betagenon AB, priority 2019, dated 2024)

How the values were obtained:
[1] = Single dose oral pharmacokinetic studies in rabbits; format: in vivo, male New Zealand White rabbits; conditions: for Plasma concentration, mean: 90 mg/kg b.w. oral; for AUCextrap / AUC(0-inf) / AUC(0-t) / Cmax / MRT last / Tmax / half-life: 90 mg/kg b.w. oral single dose; for AUC(0-inf) / AUC(0-t) / Cmax / MRT last / Tmax / half-life: male, New Zealand White, plasma, po, 90 mg/kg
Method: The studies detailed below (and referred to as Examples 2 to 8) were conducted to provide comparative single dose oral pharmacokinetics data for Compound 1, as well as sodium and potassium salts of that compound, using non-coated and enteric-coated capsules in male New Zealand White rabbits.
Compound 1 was made using the process described in WO 2011/004162 and milled as described for Example 1c. The non-coated or enteric coated gelatin capsules were individually filled with 180 mg of dry-milled Compound 1 together with accompanying excipients as indicated. Both capsule types were filled with Compound 1 together with 1.8 mg of sodium docusate, 0.18 mg of PVP K30 and 9 mg of mannitol.
Similarly, Compound 2, non-coated or enteric coated gelatin capsules were individually filled with 180 mg of dry-milled Compound 2 (as obtained in Example 1f) together with 1.8 mg of sodium docusate, 0.18 mg of PVP K30 and 9 mg of mannitol.
For Compound 3, non-coated or enteric coated gelatin capsules were individually filled with 90 mg of dry-milled Compound 3 (as obtained in Example 1i) together with 0.90 mg of sodium docusate, 0.09 mg of PVP K30 and 4.50 mg of mannitol.
40 mL of the 2% w/v methyl cellulose solution was added to a 250 mL conical flask together with 10 g of 2 mm glass beads, and vigorously stirred. Compound 1 (720 mg) was slowly added to the solution and the mixture was with continuously stirred for 1 h. The homogenate was transferred to separate flask and its pH recorded. The suspension formulation was prepared before administration to the animals.
Adult healthy male New Zealand white rabbits aged approximately 2 to 3 months old were used for experimentation after 7 days of acclimatization.
To dose the filled capsules, a soft plastic dosing tube was used. The filled capsule was inserted into the dosing tube so that the short end of the capsule protrudes slightly from the tip of the tube. The tip of the capsule was dipped in mineral oil to aid swallowing.
To dose the suspension, an infant feeding tube was used. The feeding tube was inserted through the mouth of the rabbit to the oesophagus and the stomach, and ascertained that it has not been placed in the trachea before dosing to the animals. The suspension of the Compound 1 was administered through the feeding tube. After the administration of the suspension, drinking water of approximately 2.0-2.5 mL was administered to flush out the contents in the feeding tube.
The animals were restrained in a rabbit restrainer and blood samples (400-500 μL/time point) were collected via the central ear artery at 0.16, 0.25, 0.50, 1.0, 2.0, 4.0, 6.0, 8.0, 24.0, 48.0 and 72 hours post-dosing. Collected blood specimens were centrifuged at 4000 or 6000 rpm, 4° C. for 10 minutes and plasma samples were separated and stored at −80° C. until analysis.
Concentrations of the analyte of Compound 1 in New Zealand white rabbits was determined using an API 3200 Q-trap LC-MS/MS system.
Chromatographic separation was achieved on Zorbax C18, 50×4.6 mm, 5 μm column with methanol-0.1% formic acid as mobile phase with gradient elution. The flow rate was set at 1.0 mL min^−1. Detection was accomplished by a triple-quadrupole tandem mass spectrometer in multiple-reaction monitoring (MRM) scanning via electrospray ionization source, applied in the positive mode. The optimised mass transition ion-pairs for quantitation were m/z 379.999→125.000 for the compound 1 and m/z 376.165→165.00 for the ISD (Haloperidol). Calibration plots were linear over the range of 11.062 to 20594.820 ng/mL.
The data of plasma concentration to respective time points for the analyte Compound 1 were used for the pharmacokinetic analysis. Pharmacokinetic analysis was performed using non-compartmental analysis (NCA) module of Phoenix WinNonlin 6.3 software to determine the following pharmacokinetic parameters: • Cmax • Tmax • AUC0-t • AUC0-∞ • T1/2 • MRT […]

[2] = Particle size analysis of dry-milled products (laser diffraction, Shimadzu SALD-2300); format: physicochemical
Method: Milling was performed for Examples 1a to 1c using an air jet mill (Equipment code: CP-AJM-01; Promas engineers) with the following parameters: Micronisation was repeated in all examples by performing the air jet milling for a second time using the same parameters. This allowed the particle size D90 to be reduced to less than 10 μm. [table] Four drops of Tween 20 were added to 25 mL of water and the mixture was sonicated for 3 minutes to form the dispersant solution. 0.05 g of milled material was transferred into a 250 mL glass beaker. 25 mL of the dispersant solution (Tween 20/water mixture) was added to the beaker with continuous swirling for 2 to 3 minutes. The suspension was transferred into the measuring unit and the particle size distribution measurements were conducted in triplicate.

[3] = rabbit, enteric coated capsule, rabbit plasma (Examples 5, 6, 7)
[4] = rabbit, non-coated capsule, rabbit plasma (Examples 2, 3, 4)
[5] = after 1st milling (air jet mill)
[6] = after 2nd milling (air jet mill)

- Plasma concentration, mean ([1]; 0.00 h, enteric coated capsule, rabbit): 0.000 ng/mL
- Plasma concentration, mean ([1]; 0.00 h, non-coated capsule, rabbit): 0.000 ng/mL
- Plasma concentration, mean ([1]; 0.16 h, enteric coated capsule, rabbit): 0.000 ng/mL
- Plasma concentration, mean ([1]; 0.16 h, non-coated capsule, rabbit): 169.000 ng/mL
- Plasma concentration, mean ([1]; 0.25 h, enteric coated capsule, rabbit): 0.000 ng/mL
- Plasma concentration, mean ([1]; 0.25 h, non-coated capsule, rabbit): 255.336 ng/mL
- Plasma concentration, mean ([1]; 0.50 h, enteric coated capsule, rabbit): 0.000 ng/mL
- Plasma concentration, mean ([1]; 0.50 h, non-coated capsule, rabbit): 457.796 ng/mL
- Plasma concentration, mean ([1]; 1.00 h, enteric coated capsule, rabbit): 4.721 ng/mL
- Plasma concentration, mean ([1]; 1.00 h, non-coated capsule, rabbit): 2349.624 ng/mL
- Plasma concentration, mean ([1]; 2.00 h, enteric coated capsule, rabbit): 93.881 ng/mL
- Plasma concentration, mean ([1]; 2.00 h, non-coated capsule, rabbit): 4456.537 ng/mL
- Plasma concentration, mean ([1]; 4.00 h, enteric coated capsule, rabbit): 2558.779 ng/mL
- Plasma concentration, mean ([1]; 4.00 h, non-coated capsule, rabbit): 16997.495 ng/mL
- Plasma concentration, mean ([1]; 6.00 h, enteric coated capsule, rabbit): 7906.592 ng/mL
- Plasma concentration, mean ([1]; 6.00 h, non-coated capsule, rabbit): 21418.736 ng/mL
- Plasma concentration, mean ([1]; 8.00 h, enteric coated capsule, rabbit): 16147.149 ng/mL
- Plasma concentration, mean ([1]; 8.00 h, non-coated capsule, rabbit): 39754.464 ng/mL
- Plasma concentration, mean ([1]; 24.00 h, enteric coated capsule, rabbit): 66084.614 ng/mL
- Plasma concentration, mean ([1]; 24.00 h, non-coated capsule, rabbit): 75168.570 ng/mL
- Plasma concentration, mean ([1]; 48.00 h, enteric coated capsule, rabbit): 79465.599 ng/mL
- Plasma concentration, mean ([1]; 48.00 h, non-coated capsule, rabbit): 77379.051 ng/mL
- Plasma concentration, mean ([1]; 72.00 h, enteric coated capsule, rabbit): 49785.289 ng/mL
- Plasma concentration, mean ([1]; 72.00 h, non-coated capsule, rabbit): 60164.693 ng/mL
- improvement in systemic exposure compared with the milled free base active ingredient ([1]; dry milled, capsules, 90 mg/kg oral, rabbit): more modest improvement
- AUCextrap ([1]; enteric coated capsule, rabbit plasma (Examples 5, 6, 7)): 69.48 ± 19.80%
- AUC(0-inf) [1, 3]: 18600 ± 13800 µg·h/mL
- AUC(0-t) [1, 3]: 3990 ± 43.3 µg·h/mL
- Cmax [1, 3]: 79500 ± 5430 ng/mL
- MRT last [1, 3]: 42 ± 0.696 h
- Tmax [1, 3]: 48 h
- half-life [1, 3]: 189 ± 158 h
- AUC(0-inf) [1, 4]: 9370 ± 3380 µg·h/mL
- AUC(0-t) [1, 4]: 4530 ± 589 µg·h/mL
- Cmax [1, 4]: 81900 ± 10400 ng/mL
- MRT last [1, 4]: 39.6 ± 3.88 h
- Tmax [1, 4]: 40 ± 13.9 h
- half-life [1, 4]: 71.6 ± 22.6 h
- AUCextrap ([1]; non-coated capsule, rabbit plasma (Examples 2, 3, 4)): 52.23 ± 10.63%
- Particle size distribution D10 [2, 5]: 0.382 μm
- Particle size distribution D50 [2, 5]: 3.64 μm
- Particle size distribution D90 [2, 5]: 26.2 μm
- Particle size distribution D100 [2, 5]: 584 μm
- Particle size distribution D10 [2, 6]: 0.289 μm
- Particle size distribution D50 [2, 6]: 1.57 μm
- Particle size distribution D90 [2, 6]: 11.7 μm
- Particle size distribution D100 [2, 6]: 35.3 μm
- Particle size distribution D10 ([2]; before milling): 0.876 μm
- Particle size distribution D50 ([2]; before milling): 13.4 μm
- Particle size distribution D90 ([2]; before milling): 205 μm
- Particle size distribution D100 ([2]; before milling): 665 μm
Compound: O=C(Nc1nc(=O)n(Cc2ccc(Cl)cc2)s1)c1ccc(Cl)cc1.[K] [Compound 3, 4-chloro-N-[2-[(4-chlorophenyl)methyl]-3-oxo-1,2,4-thiadiazol-5-yl]benzamide potassium salt]
